From US20060078540A1, “Dendritic cell nodes” (priority 2003, published 2006)

Tested on: bone marrow-derived dendritic cells
Assay: Migration filter chemotaxis assay (chemotaxis index)
Format: cell-based
Method: The formyl peptide fMLP (formyl-Met-Leu-Phe) chemoattractant has been studied in addition to the protein chemokine MIP-3α. The formyl peptide is a bacterial byproduct that attracts DC's to sites of infection. It has been reported in the literature to be attractive for iDC's in mice and humans. […] For these experiments, DC's were placed on the top of a migration filter containing 5-μm pores with a reservoir of fMLP (or MIP-3α) at the indicated concentration on the other side. After 90 minutes, the number of cells migrating in response to the chemoattractants was counted and compared to controls. In FIG. 18, CI is the chemotaxis index, defined as (number of migrated cells in chemokine)/(number of migrated cells in control without chemokine).
The literature reports CI up to ≈5 max for bone-marrow-derived dendritic cells (BMDC's), but this experiment was carried out on late-stage DC cultures (DC's are starting to mature on Day 7) and the culture was not purified, thus a significant contamination with neutrophils is likely present; thus the real CI is possibly higher.

How did the “concentration giving maximal migration” value (previous experiments, in line with literature reports) turn out when MIP-3α: protein chemokine was run?
The value was 1 µg/mL.

For formyl-Met-Leu-Phe [fMLP], which “maximal potency of attraction of dendritic cells” value (5-μm pore migration filter, 90 minutes, Day 7 unpurified cultures, high concentrations of fMLP) is on record?
Its value is “comparable to MIP-3α”.
